Source: patent US20250114430A1, “MODIFIED PEPTIDOMIMETICS AND METHODS OF USE” (The University of North Carolina at Chapel Hill, priority 2021, published 2025)
“Also recorded” adds a separate entry of the source. No end group written: not given here.

Assays:
P. aeruginosa POA1 = experiment: P. aeruginosa infection in Orai1 heterozygous mice and WT littermates; format: in vivo; details: 10^7 CFU/mouse, 0.5 mg/kg intranasal
Source text: ELD607, but not global Orai1 inhibition or steroids beneficially reduce pulmonary inflammation after P. aeruginosa infection.

HEK293T cells = experiment: Cytoplasmic Ca^2+ (Fluo-4) in HEK293T cells incubated with ELD peptides; format: cell-based; details: 2 hours with Fluo-4 plus or minus peptide
SCNN1B mice = experiment: SCNN1B (βENaC) overexpressing mice, chronic pulmonary inflammation; format: in vivo
Description: SCNN1B and littermate control mice were exposed to ELD607 or vehicle intranasally on a daily basis for 11 days, starting on day 1 post-partum.
FIG. 32 panel A: Mice were infected with P. aeruginosa for 24 h; then, 0.5 mg/kg ELD607 was added intratracheally. BAL was collected 24 h later to determine cell counts. SCNN1B mice were given 0.5 mg/kg ELD607 daily for 11 days before sacrifice and BAL collection. FIG. 32 panel B: Survival of bENaC mice.
Additional models were tested such as the house dust mite (HDM) allergic lung inflammation model (FIG. 20); and SCNN1B-overexpression, wherein mice develop mucus obstruction and spontaneous pulmonary inflammation (FIG. 21).
Repeated ELD607 exposure reduces chronic inflammation in βENaC overexpressing mice. We added ELD607 to βENaC overexpressing mice, which spontaneously develop chronic infection and neutrophilia and have increased mortality (FIG. 32, panel A).

in vitro = in vitro ADME; details: human, serum
Description: We injected mice intraperitoneally with E. coli LPS, followed by 0.5 mg/kg ELD607 injected intravenously 1 h later.

[1] = Lung retention and blood exposure after intratracheal dosing in mice; details: mouse, in vivo
Description: FIG. 30 panels B and C show % ELD607 recovered in BAL (FIG. 30 panel B) and blood (FIG. 30 panel C).
ELD607 is retained in the lung lumen. ELD607-TAMRA or vehicle (saline) was administered to mice intratracheally (0.5 mM, 1 h). Lungs were isolated, fixed, clarified and imaged using light-sheet fluorescence microscopy. […] We then dosed mice with 10 mg/kg ELD607 and collected BAL and blood. ELD607 levels declined over time in the BAL and plateaued with ˜10% of the initial dose detected after 2 h (FIG. 30, panel B).

[2] = test system: bleomycin-induced lung injury; experiment: Bleomycin-induced lung fibrosis in mice; format: in vivo; set-up: dose or concentration left out as unconfirmed
Description: Mice were exposed to 4 doses of bleomycin as described from days 1-37, then fibrosis was allowed to form from days 38-60. The mice were then dosed daily with inhaled […] (1 mg/kg) from days 61-82. Mice were sacrificed on Day 83 and histology was performed.
ELD607 reverses fibrosis in mice. Bleomycin-exposed mice are a well-established model to study IPF. Based on ATS guidelines, mice were dosed with […] bleomycin per dose 4 times over 37 days to induce fibrosis. From day 61, mice were then treated intranasally with […] ELD607 daily for 20 days (FIG. 40 panel A). Lungs were then collected and prepped for H&E staining and fibrosis was measured using the Ashcroft scaling system.

[3] = test system: P. aeruginosa, Staphylococcus aureus, and Haemophilus influenzae; experiment: Murine bacterial infection models (three organisms); format: in vivo, mice
Description: Mice were dosed intranasally with P. aeruginosa (PA), S. aureus (Sa), or H. influenzae followed by vehicle (saline) or 0.5 mg/kg of ELD100 or ELD607 per mouse. FIG. 19 panels A, F, and K show total cell counts; FIG. 19 panels B, G, and L show BAL macrophages; FIG. 19 panels C, H, and M show BAL neutrophils; FIG. 19 panels D, I, and N show whole lung CFUs; and FIG. 19 panels E, J, and O show spleen CFUs. Top row, P. aeruginosa, middle row, S. aureus, bottom row, H. influenzae. * p<0.05 different from naïve mice; #p<0.05 different from infected mice.
ELD607 reduces neutrophilia and increases lung bacterial clearance in multiple murine bacterial infection models. Neutrophilia is a common feature of both Gram-positive and Gram-negative lung infections. Accordingly, further studies were performed with P. aeruginosa, Staphylococcus aureus, and Haemophilus influenzae (FIG. 19 panels B, C, G, H, L, and M). After infection with all three organisms, significant levels of bacteria were detected in the lung and spleen, and the infections increased total BAL cell numbers due to neutrophilia, while relative BAL macrophage numbers declined (FIG. 19 panels A-O). […] Moreover, 24 h after infection, about 10^9 CFUs could be detected in murine whole lung homogenate.

[4] = biological target: T1, Orai1/store operated Ca^2+ influx (Homo sapiens, UniProt Q96D31); experiment: Store operated Ca^2+ influx in HEK293T cells (Example 2); format: cell-based; details: a6 and ELD607 combined
T1 construct: Endogenous Orai1/store operated Ca^2+ influx have been extensively studied in HEK293T cells; endogenous in cells; host or cells: HEK293T
T1 sequence (Q96D31 whole entry): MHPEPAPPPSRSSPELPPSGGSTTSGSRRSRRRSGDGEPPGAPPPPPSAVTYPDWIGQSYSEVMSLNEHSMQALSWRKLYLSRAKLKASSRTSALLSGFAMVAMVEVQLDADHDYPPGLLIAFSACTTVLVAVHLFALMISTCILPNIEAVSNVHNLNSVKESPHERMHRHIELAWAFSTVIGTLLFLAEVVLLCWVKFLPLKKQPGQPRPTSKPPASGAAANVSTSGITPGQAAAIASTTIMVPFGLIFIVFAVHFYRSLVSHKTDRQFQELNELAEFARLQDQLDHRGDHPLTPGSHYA
Source text: Endogenous Orai1/store operated Ca^2+ influx have been extensively studied in HEK293T cells, so this cell type was used to understand ELD607-Orai1 interactions. […] Thapsigargin is a SERCA pump inhibitor that prevents uptake of cytosolic Ca^2+ into the endoplasmic reticulum. Thapsigargin is commonly used to stimulate Orai1/store operated Ca^2+ influx. […] Dynamic light scattering (DLS) was used to evaluate binding of ELD607 to peptides of Orai1 extracellular loops. […] Thus, it was concluded that ELD607 interacts with Orai1.

NFAT = experiment: NFAT-GFP relocation to the nucleus in HEK293T cells after stimulation of SOCE; format: cell-based; details: thapsigargin
Source text: To determine whether ELD607 internalized Orai1, total internal reflection fluorescence (TIRF) microscopy was used to measure Orai1 in the plasma membrane. […] However, ELD607 reduced Orai1 plasma membrane expression by ˜50% (FIG. 26, panels A-B). […] We expressed NFAT-GFP in HEK293T cells and evaluated the ability of ELD607 to attenuate NFAT relocation to the nucleus after stimulation of SOCE by confocal microscopy. ELD607 reduced the percentage of NFAT in the nucleus by greater than 50% (FIG. 26, panels C-D).

house dust mite allergen = experiment: House dust mite (HDM) allergic lung inflammation model; format: in vivo, mice; details: HDM 14 days, 0.5 mg/kg intranasally for 2 days
Description: Mice were exposed to HDM allergen for 14 days, with […] ELD100 or […] ELD607 instilled intranasally for 2 days before sacrifice.
ELD607 reduces allergic inflammation. Mice were exposed to house dust mite allergen for 14 days. 0.5 mg/kg ELD100 or ELD607 were instilled intranasally for 2 days before sacrifice.

[5] = 0.5 mg/kg intranasal, 24 h after infection

Sequence: VHDIVNMLIRG [ELD607, VHDIVNMLIRG]
- leukocyte levels in WT littermate controls (P. aeruginosa POA1): normalized leukocytes similar to naïve mice
- cytoplasmic calcium levels as compared to a control scrambled peptide (HEK293T cells): reduced cytoplasmic calcium levels
- survival of βENaC overexpressing mice (SCNN1B mice; daily intranasal 0.5 mg/kg): increased survival
- neutrophils in SCNN1B (βENaC) mice (SCNN1B mice; daily intranasal 0.5 mg/kg, 11 days): significantly reduced lung neutrophilia; also recorded: significantly decreased BAL neutrophil levels
- BAL cells in WT littermate mice (SCNN1B mice; daily intranasal, 11 days): no effect on WT mice
- remaining at 4 h (in vitro): 100%
- % of the initial dose detected in BAL [1]: ~10%
- % of the original dose detected in the blood [1]: less than 0.3%
- lung damage (Ashcroft) ([2]; 25 intranasally daily for 20 days from day 61): significantly less lung damage than vehicle controls
- acute and chronic bleomycin-induced lung injury ([2]; lower dose of 19, different time course): reduces acute and chronic bleomycin-induced lung injury
- lung macrophage levels [3, 5]: significantly normalized lung macrophage levels
- neutrophilia [3, 5]: reduced neutrophilia
- reduction in lung bacteria ([3]; FIG. 19 panels D and I): 3-5 log10
- sepsis (spleen CFUs) ([3]; FIG. 19 panels E and J): significantly reduced sepsis
- overall outcomes ([3]; all three infections): significantly improved outcomes
- additivity of inhibitory effects of a6 and ELD607 on thapsigargin-induced elevations in cytosolic Ca^2+ [4]: not additive
- reduction of the percentage of NFAT in the nucleus (NFAT): greater than 50%
- BAL eosinophilia (house dust mite allergen): significantly reduced
- BAL macrophages (house dust mite allergen): increased BAL macrophages
- BAL neutrophilia (house dust mite allergen): significantly reduced BAL neutrophilia
